Experimental findings from ChEMBL document CHEMBL1221184, “Identifying off-target effects and hidden phenotypes of drugs in human cells” (Nat Chem Biol, 2006) are described below.

In assay [1] the test system is PC-3. Nature of the assay: Antiproliferative activity against human PC3 cells at 500 nM after 120 hrs by MTT assay relative to DMSO. It is filed as functional.
Assay [2] deals with PC-3. The assay can be described thus: Antiproliferative activity against human PC3 cells at 50 uM after 120 hrs by MTT assay relative to DMSO. Format: functional. (Formazan colour is commonly taken as a measure of viable cells.)
Assay [3] has as its system PC-3. Nature of the assay: Antiproliferative activity against human PC3 cells at 1 uM after 120 hrs by MTT assay relative to DMSO. Format: functional.
Assay [4] has as its target Transcription factor Jun (Homo sapiens) (UniProt P05412). The assay can be described thus: Activation of c-Jun expressed in HEK293 cells assessed as induction of protein interaction with Pin1 by EYFP based reporter gene assay. It is filed as cell-based. For orientation: Reporter assays use an easily measured gene product as a stand-in for the process of interest.
For assay [5], the system named is PC-3. The assay can be described thus: Antiproliferative activity against human PC3 cells at 30 uM after 120 hrs by MTT assay relative to DMSO. It is filed as functional.
In assay [6] the test system is PC-3. Nature of the assay: Antiproliferative activity against human PC3 cells at 25 uM after 120 hrs by MTT assay relative to DMSO. Format: functional.
For assay [7], the system named is PC-3. Nature of the assay: Antiproliferative activity against human PC3 cells at 100 nM after 120 hrs by MTT assay relative to DMSO. Format: functional.
For assay [8], the system named is PC-3. Nature of the assay: Antiproliferative activity against human PC3 cells at 5 uM after 120 hrs by MTT assay relative to DMSO. It is filed as functional.
Assay [9] deals with PC-3. Nature of the assay: Antiproliferative activity against human PC3 cells at 250 nM after 120 hrs by MTT assay relative to DMSO. It is filed as functional.
Assay [10] has as its target Cofilin-1 (Homo sapiens) (UniProt P23528). Nature of the assay: Effect on cofilin1 expressed in HEK293 cells assessed as effect on cofilin1; Limk2 interaction complexes in presence of camptothecin by EYFP and/or YFP Venus fragment based reporter gene assay. Format: cell-based.
The target of assay [11] is Cyclin-dependent kinase 1 (Homo sapiens) (UniProt P06493). Nature of the assay: Effect on Cdc2 expressed in HEK293 cells assessed as effect on Cdc2:Cdc25C interaction complexes in presence of camptothecin by EYFP and/or YFP Venus fragment based reporter gene assay. Format: cell-based.
Assay [12] shares this target. The assay can be described thus: Effect on Cdc2 expressed in HEK293 cells assessed as effect on Cdc2:Cdc25A interaction complexes in presence of camptothecin by EYFP and/or YFP Venus fragment based reporter gene assay. It is filed as cell-based.
The test system of assay [13] is PC-3. Nature of the assay: Antiproliferative activity against human PC3 cells at 10 uM after 120 hrs by MTT assay relative to DMSO. Format: functional.
The target of assay [14] is Transcription factor Jun (Homo sapiens) (UniProt P05412). Nature of the assay: Inhibition of c-Jun expressed in HEK293 cells assessed as induction of protein interaction in presence of camptothecin with Pin1 by EYFP based reporter gene assay. It is filed as cell-based.
The test system of assay [15] is PC-3. The assay can be described thus: Antiproliferative activity against human PC3 cells at 2 uM after 120 hrs by MTT assay relative to DMSO. Format: functional.

SMILES strings stand for the structures. The source made the active and inactive calls. The calls are words filed in the database; no cut-off is given here. Positions of bridges follow the written chain, without caps; N, C: chain ends. Residues, ends and D or L forms follow the SMILES beside them.

Cyclin-dependent kinase 1 (Homo sapiens), sequence (P06493 whole entry, looked up, the tested form may be a part): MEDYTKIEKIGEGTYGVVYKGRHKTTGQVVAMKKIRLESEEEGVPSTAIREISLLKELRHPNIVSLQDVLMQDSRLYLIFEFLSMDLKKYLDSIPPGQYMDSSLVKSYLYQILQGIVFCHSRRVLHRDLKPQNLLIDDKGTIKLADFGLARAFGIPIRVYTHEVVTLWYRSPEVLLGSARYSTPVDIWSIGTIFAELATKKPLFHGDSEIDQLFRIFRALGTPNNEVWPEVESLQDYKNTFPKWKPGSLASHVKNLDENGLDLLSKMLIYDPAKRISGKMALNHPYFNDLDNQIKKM
Transcription factor Jun (Homo sapiens), sequence (P05412 whole entry): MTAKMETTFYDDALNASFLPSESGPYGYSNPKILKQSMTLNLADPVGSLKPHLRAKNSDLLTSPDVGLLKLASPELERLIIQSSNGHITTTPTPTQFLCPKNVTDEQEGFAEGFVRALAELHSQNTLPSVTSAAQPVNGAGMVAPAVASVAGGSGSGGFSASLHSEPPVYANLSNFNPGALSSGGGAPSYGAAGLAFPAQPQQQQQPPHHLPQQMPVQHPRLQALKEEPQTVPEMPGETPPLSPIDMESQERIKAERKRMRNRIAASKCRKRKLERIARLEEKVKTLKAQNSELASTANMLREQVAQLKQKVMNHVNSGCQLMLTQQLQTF
Cofilin-1 (Homo sapiens), sequence (P23528 whole entry, the tested form may be a part): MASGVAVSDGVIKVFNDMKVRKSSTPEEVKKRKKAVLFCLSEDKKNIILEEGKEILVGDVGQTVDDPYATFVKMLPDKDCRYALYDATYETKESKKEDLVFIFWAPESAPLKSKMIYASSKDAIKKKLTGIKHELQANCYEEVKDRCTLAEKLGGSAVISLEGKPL

Turning to `COC[C@H]1OC(=O)c2coc3c2[C@@]1(C)C1=C(C3=O)[C@@H]2CCC(=O)[C@@]2(C)C[C@H]1OC(C)=O` [WORTMANNIN], in assay [1], the “fold change (FC)” value came out at 0.856.

For `O=c1cc(-c2ccc(O)cc2)oc2cc(O)cc(O)c12` [APIGENIN], in assay [2], the “fold change (FC)” value stood at 0.552.

Regarding `CNc1cc2c(Nc3cccc(Br)c3)ncnc2cn1`, in [3], the “fold change (FC)” value was 1.022.

As to `CC(C)(Oc1ccc(C2CC2(Cl)Cl)cc1)C(=O)O` (stereo not drawn) [CIPROFIBRATE], the result in [4] was Active. In addition, the “fold change (FC)” value in assay [5] was found to be 1.047.

As to `C[S+]([O-])c1ccc(-c2nc(-c3ccc(F)cc3)c(-c3ccncc3)[nH]2)cc1` (stereo not drawn) [SB-203580], the “fold change (FC)” value in assay [6] is 0.721.

`C[C@]12CC[C@@H]3c4ccc(O)cc4CC[C@H]3[C@@H]1CC[C@@H]2O` [ESTRADIOL]: the “fold change (FC)” value in assay [1] stood at 0.997.

In the case of `Cn1c2ccccc2c2c3c(c4c5ccccc5n(CCC#N)c4c21)CNC3=O` [GO-6976], the “fold change (FC)” value in assay [7] is 1.119.

As for `CCCCCCCC/C=C\CCCCCCCC(=O)OC[C@@H](O)COP(=O)(O)O` [LYSOPHOSPHATIDIC ACID], the “fold change (FC)” value in [8] was determined as 1.018.

Regarding `COc1ccc(C2CNC(=O)C2)cc1OC1CCCC1` (stereo not drawn) [ROLIPRAM], the “fold change (FC)” value in assay [6] is 1.065.

Turning to `CO[C@H]1C[C@@H]2CC[C@@H](C)[C@@](O)(O2)C(=O)C(=O)N2CCCC[C@H]2C(=O)O[C@H]([C@H](C)C[C@@H]2CC[C@@H](O)[C@H](OC)C2)CC(=O)[C@H](C)/C=C(\C)[C@@H](O)[C@@H](OC)C(=O)[C@H](C)C[C@H](C)/C=C/C=C/C=C/1C` [SIROLIMUS], the “fold change (FC)” value in assay [9] turned out to be 0.401.

Consider `Cc1ccc(C)c(OCCCC(C)(C)C(=O)O)c1` [GEMFIBROZIL], for which the outcome in [4] was Active. Also, the “fold change (FC)” value in assay [5] was found to be 1.046.

On to `CC[C@@]1(O)C(=O)OCc2c1cc1n(c2=O)Cc2cc3ccccc3nc2-1` [CAMPTOTHECIN], for which the “fold change (FC)” value in [1] stood at 0.258.

As for `COc1ccc(-n2nc(C(F)(F)F)cc2-c2ccc(Cl)cc2)cc1` [SC-560], the “fold change (FC)” value in assay [9] is 1.036.

Consider `Ic1cccc(CSc2nnc(-c3ccncc3)o2)c1`, for which, in assay [3], the “fold change (FC)” value turned out to be 1.095.

On to `COc1cc2ncc(-c3ccccc3)nc2cc1OC`, for which, in [8], the “fold change (FC)” value turned out to be 0.94.

As to `CC/C(=C(\c1ccccc1)c1ccc(OCCN(C)C)cc1)c1ccccc1` [TAMOXIFEN], the “fold change (FC)” value in assay [1] was 1.041.

As to `CC1=C(/C=C/C(C)=C/C=C/C(C)=C/C(=O)O)C(C)(C)CCC1` [TRETINOIN], the “fold change (FC)” value in assay [8] is on record as 0.969.

Consider `NC1=NC(=O)/C(=C2/CCNC(=O)c3[nH]ccc32)N1`, for which the “fold change (FC)” value in assay [8] was determined as 1.007.

As to `C[C@@H]1C[C@H]2[C@@H]3CCC4=CC(=O)C=C[C@]4(C)[C@@]3(F)[C@@H](O)C[C@]2(C)[C@@]1(O)C(=O)CO` [DEXAMETHASONE], in assay [1], the “fold change (FC)” value was determined as 1.127.

As for `Cn1c(=O)c2c(ncn2C)n(C)c1=O` [CAFFEINE], in [2], the “fold change (FC)” value worked out at 0.952.

Consider `Clc1ccccc1C(c1ccccc1)(c1ccccc1)n1ccnc1` [CLOTRIMAZOLE], for which the result in assay [10], in assay [11], in assay [12] and in [14] was Active. Also, the “fold change (FC)” value in assay [13] was 0.708.

In the case of `C[C@]12CC[C@@H]3c4ccc(O)cc4C[C@@H](CCCCCCCCC[S+]([O-])CCCC(F)(F)C(F)(F)F)[C@H]3[C@@H]1CC[C@@H]2O` (stereo partly drawn) [FULVESTRANT], the “fold change (FC)” value in [1] was 1.068.

On to `Br.Cc1ccc(C(=O)Cn2c3c(sc2=N)CCCC3)cc1`, for which, in assay [2], the “fold change (FC)” value is 0.424.

As to `CN(C)CCOc1ccc(/C(=C(/CCCl)c2ccccc2)c2ccccc2)cc1` [TOREMIFENE], in [1], the “fold change (FC)” value was 1.001.

Take `CCCc1nc(C)c2c(=O)nc(-c3cc(S(=O)(=O)N4CCN(CC)CC4)ccc3OCC)[nH]n12`: the “fold change (FC)” value in assay [3] worked out at 1.058.

Regarding `O=C(c1ccc(OCCN2CCCCC2)cc1)c1c(-c2ccc(O)cc2)sc2cc(O)ccc12` [RALOXIFENE], the “fold change (FC)” value in [1] stood at 1.06.

On to `CC[C@H](CO)Nc1nc(NCc2ccccc2)c2ncn(C(C)C)c2n1` [SELICICLIB], for which the “fold change (FC)” value in assay [8] was determined as 0.797.

On to `O=C1C=C2C(=CCOC2O)O1` (stereo not drawn) [PATULIN], for which the outcome in assay [10], in assay [11], in assay [12] and in [14] was Active. Further, the “fold change (FC)” value in assay [13] was 0.23.

As to `CC[C@H](C)[C@H](NC(=O)[C@@H](NC(=O)[C@H](CC(=O)O)NC(=O)[C@H](CCC(N)=O)NC(=O)[C@H](Cc1cnc[nH]1)NC(=O)[C@@H]1CSSC[C@H](N)C(=O)N[C@@H](CO)C(=O)N[C@H]2CSSC[C@H](NC(=O)[C@H](CCC(=O)O)NC(=O)[C@H](CCCCN)NC(=O)[C@H](CC(=O)O)NC(=O)[C@H]([C@@H](C)O)NC(=O)[C@H](CCSC)NC(=O)[C@H](CC(=O)O)NC(=O)[C@H](CCCCN)NC2=O)C(=O)N[C@@H](CC(C)C)C(=O)N[C@@H](Cc2ccc(O)cc2)C(=O)N[C@@H](Cc2ccccc2)C(=O)N1)C(C)C)C(=O)N[C@@H](Cc1c[nH]c2ccccc12)C(=O)O` (H-CSCKDMTDKECLYFCHQDVIW-OH; disulfide 1-15, 3-11), in [7], the “fold change (FC)” value is 1.037.

Take `NS(=O)(=O)Cc1noc2ccccc12` [ZONISAMIDE]: the “fold change (FC)” value in [8] was 1.035.

On to `NS(=O)(=O)c1ccc(-n2nc(C(F)(F)F)cc2-c2ccccc2)cc1`, for which the “fold change (FC)” value in assay [1] amounted to 1.023.

As to `C/C(=C\c1csc(C)n1)[C@@H]1C[C@@H]2O[C@@H]2CCC[C@H](C)[C@H](O)[C@@H](C)C(=O)C(C)(C)[C@@H](O)CC(=O)O1` [EPOTHILONE A], the “fold change (FC)” value in assay [7] worked out at 0.291.

`O=c1cc(N2CCOCC2)oc2c(-c3ccccc3)cccc12` [LY-294002]: the “fold change (FC)” value in [6] is listed as 0.33.

For `Cc1ccc(NC(=O)c2cccc(N(C)C)c2)cc1NC(=O)c1ccc(O)cc1`, in assay [8], the “fold change (FC)” value was found to be 0.97.

For the molecule `CC(O)(CS(=O)(=O)c1ccc(F)cc1)C(=O)Nc1ccc(C#N)c(C(F)(F)F)c1` (stereo not drawn) [BICALUTAMIDE], the “fold change (FC)” value in assay [1] is listed as 1.005.

On to `C[C@@H](N)[C@H]1CC[C@H](C(=O)Nc2ccncc2)CC1` [Y-27632], for which, in assay [6], the “fold change (FC)” value is recorded as 0.958.

With `Cc1nc2n(c(=O)c1CCN1CCC(c3noc4cc(F)ccc34)CC1)CCCC2` [RISPERIDONE], the “fold change (FC)” value in assay [15] is on record as 1.071.

Regarding `CCCc1nn(C)c2c(=O)[nH]c(-c3cc(S(=O)(=O)N4CCN(C)CC4)ccc3OCC)nc12`, the “fold change (FC)” value in [3] was determined as 1.037.

As to `OCCOCCN1CCN(C2=Nc3ccccc3Sc3ccccc32)CC1` [QUETIAPINE], the “fold change (FC)” value in [15] was determined as 1.013.

For the molecule `C(=C\c1ccccc1)/CN1CCN(C(c2ccccc2)c2ccccc2)CC1`, the result in assay [10], in [11], in assay [12] and in assay [14] was Active.

With `CC(C)C[C@H](NC(=O)c1ccc(NCc2c[nH]cn2)cc1-c1cccc2ccccc12)C(=O)O`, the “fold change (FC)” value in assay [8] came to 0.966.

Regarding `Cc1ccc(S(=O)(=O)/C=C/C#N)cc1`, the result in [11] was Active. The “fold change (FC)” value in assay [13] is listed as 0.231.

As for `CC(/C=C/C(=O)NO)=C\[C@@H](C)C(=O)c1ccc(N(C)C)cc1` [TRICHOSTATIN], the “fold change (FC)” value in assay [8] was found to be 0.268.

`CN1CC(=O)N2[C@H](c3ccc4c(c3)OCO4)c3[nH]c4ccccc4c3C[C@@H]2C1=O`: the “fold change (FC)” value in assay [3] is 1.052.
